Data on 1 compound can be found in EP0870197B2, “USE OF NUCLEAR MAGNETIC RESONANCE TO DESIGN LIGANDS TO TARGET BIOMOLECULES” (priority 1995, dated 1997).

One data set in a line: water solubility. In kind it is physicochemical.
For data set [1], the target named is T1, catalytic domain of stromelysin (Homo sapiens, UniProt P08254).
T1 construct: expression construct coding for amino acid residues 81-256 plus an initiating methionine; initiating methionine (N); made in house; host or cells: E. coli BL21(DE3)/pLysS, pET3d
T1 sequence (P08254 98-273): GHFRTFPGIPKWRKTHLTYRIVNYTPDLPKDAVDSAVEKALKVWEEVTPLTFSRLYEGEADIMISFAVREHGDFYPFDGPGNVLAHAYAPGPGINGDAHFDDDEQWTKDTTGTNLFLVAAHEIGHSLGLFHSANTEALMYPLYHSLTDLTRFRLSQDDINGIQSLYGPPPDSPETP
Kind of data set: enzymatic assay, cleavage of a fluorogenic substrate. In kind it is biochemical. On the procedure: In a first study, binding constants were determined, both by the NMR method of the present invention, and by a prior art enzymatic assay. The target molecule was the catalytic domain of stromelysin prepared in accordance with the procedures of Example 1. […] The KD values so obtained were compared to an inhibition constant KI as determined in an enzymatic assay.
The enzymatic assay measured the rate of cleavage of a fluorogenic substrate by following the fluorescence increase upon peptide cleavage which causes a separation between the fluorophore and quencher. Enzymatic activity was measured using a matrix of different concentrations of acetohydroxamic acid and biaryl compounds. The assay is a modification of the method described by H. Weingarten, et al. in Anal. Biochem., 147: 437-440 (1985) employing the fluorogenic substrate properties described by E. Matayoshi, et al. in Science: 247: 954-958 (1990).
Eight acetohydroxamic acid concentrations were used ranging from 0.0 to 1.0 M, and six compound concentrations were used, resulting in a total of 48 points. Individual compound concentration varied due to solubility and potency.
All NMR measurements were performed in the presence of 500 mM acetohydroxamic acid, except for the titration of acetohydroxamic acid itself. Dissociation constants were obtained from the dependence of the observed chemical shift changes upon added ligand. Inhibition constants were then obtained from the inhibition data using standard procedures.

Data set [2] addresses T1, catalytic domain of stromelysin. Put plainly: two-dimensional 15N/1H NMR correlation titration, dissociation constant. In kind it is binding. On the procedure:
Binding or dissociation constants are measured by following the ^15N/^1H chemical shifts of the protein as a function of ligand concentration. A known concentration ([P]o) of the target molecule is mixed with a known concentration ([L]0) of a previously identified ligand and the two-dimensional ^15N/^1H correlation spectrum was acquired. From this spectrum, observed chemical shift values (δobs) are obtained. The process is repeated for varying concentrations of the ligand to the point of saturation of the target molecule, when possible, in which case the limiting chemical shift value for saturation (δsat) is measured.
In those situations where saturation of the target molecule is achieved, the dissociation constant for the binding of a particular ligand to the target molecule is calculated using the formula: KD = (([P]0−x)([L]0−x))/(x) [formula] where [P]0 is the total molar concentration of target molecule; [L]0 is the total molar concentration of ligand; and x is the molar concentration of the bound species. The value of x is determined from the equation: x = (δobs −δfree)/(Δ) [formula] where δfree is the chemical shift of the free species; δobs is the observed chemical shift; and Δ is the difference between the limiting chemical shift value for saturation (δsat) and the chemical shift value of the target molecule free of ligand (δfree).
The dissociation constant is then determined by varying its value until a best fitto the observed data is obtained using standard curve-fitting statistical methods. In the case where δsat is not directly known, both KD and δsat are varied and subjected to the same curve-fitting procedure.
The catalytic domain of stromelysin was prepared in accordance with the procedures of Example 1. The protein solutions used in the screening assay contained the uniformly ^15N-labeled catalytic domain of stromelysin (0.3 mM), acetohydroxamic acid (500 mM), CaCl2 (20 mM), and sodium azide (0.5%) in a H2O/D2O (9/1) TRIS buffered solution (50 mM, pH=7.0).
Two-dimensional ^15N/^1H NMR spectra were generated at 29°C on a Bruker AMX500 NMR spectrometer equipped with a triple resonance probe and Bruker sample changer. The ^15N/^1H HSQC spectra were acquired as 80 x 1024 complex points using sweep widths of 2000 Hz (^15N, t^1) and 8333 Hz (^1H, t2). A delay of 1 second between scans and 8 scans perfree induction decay(fid) were employed in the data collection. All NMR spectra were processed and analyzed on Silicon Graphics computers using in-house-written software.
A first two-dimensional ^15N/^1 H NMR correlation spectrum was acquired for the ^15N-labeled stromelysin target molecule as described above. The stromelysin target was then exposed to a database of test compounds. Stock solutions of the compounds were made at 100 mM and 1 M. In addition, a combination library was prepared that contained 8-10 compounds per sample at a concentration of 100 mM for each compound.
The NMR samples were prepared by adding 4 µl of the DMSO stock solution of the compound mixtures that contained each compound at a concentration of 100 mM to 0.4 ml H2O/D2O (9/1) buffered solution of the uniformly ^15N-labeled protein. The final concentration of each of the compounds in the NMR sample was about 1 mM.
Various biaryl compounds of structure I were tested for binding to stromelysin at differing concentrations. The ^15N/^1H spectra generated at each concentration were evaluated to quantify differences in the spectra as a function of compound concentration. A binding or dissociation constant (KD)was calculated, using standard procedures well known in the art, from those differences. The values for R1-R3 and A1-A3 in Table 1 refer to the corresponding positions in the structure I, above.
All NMR measurements were performed in the presence of 500 mM acetohydroxamic acid, except for the titration of acetohydroxamic acid itself. Dissociation constants were obtained from the dependence of the observed chemical shift changes upon added ligand. […]

For the next data set, the target named is T2, Stromelysin (Homo sapiens, UniProt P08254).
T2 construct: expression construct coding for amino acid residues 81-256 plus an initiating methionine; initiating methionine (N); made in house; host or cells: E. coli BL21(DE3)/pLysS, pET3d
T2 sequence (P08254 98-273): as above
Put plainly: inhibition of stromelysin degradation (autolysis). In kind it is biochemical. The following applies: at a concentration of 500 mM. The procedure:
Studies were performed to design new ligands that bound to the catalytic domain of stromelysin. Because stromelysin undergoes autolysis, an inhibitor was sought to block the degradation of stromelysin. That inhibitor would facilitate the screening of other potential ligands that bind to other sites on the enzyme.
A variety of hydroxamic acids of the general formula R-(CO)NHOH were screened for binding to stromelysin using the procedures set forth in Example 2.

Where two headings read alike, the source gives them in different places.

Turning to `CC(=O)NO` [Acetohydroxamic acid, acetohydroxamic acid, reference compound], the water solubility result in the data set “water solubility” is listed as “good water solubility”. In data set [1], the affinity corresponds to a Ki of 21.1 mM. Moreover, the Kd in data set [2] (NMR screening of hydroxamic acids, read-out: binding affinity for stromelysin) stood at 17 mM; in data set [2] (Table 3, titration of acetohydroxamic acid itself, read-out: NMR KD) it was 17 mM. At Stromelysin, the “degradation of the enzyme” value was “inhibited the degradation of the enzyme”.
